Laboratory results taken from ChEMBL document CHEMBL3886918, “Pyrimidine compounds useful in the treatment of diseases mediated by IKKE and/or TBK1 mechanisms” (2016).

What follows are molecules tested against T1, Serine/threonine-protein kinase TBK1 (Homo sapiens, UniProt Q9UHD2) (assay: Time-Resolved Fluorescence-based Lanthascreen Assay: Kinase inhibition assays (10 μL) were performed at 20° C. in 384-well plate format. Compound IC50 values were determined at the apparent Km for ATP (20 μM) based on a radiometric assay (Invitrogen) using 8 or 10 point curves in duplicate. The final reaction conditions contained 400 nM fluorescein-IkBα substrate ([…]), 20 μM ATP, 2 nM or 8 nM IKKε or TBK1 kinase respectively, and 3% DMSO in kinase assay buffer consisting of 50 mM HEPES (pH 7.5), 10 mM MgCl, 1 mM EGTA, 0.01% Brij-35.Compound dilutions were prepared from 10 mM DMSO stocks by dilution into DMSO. Compound dilution series were further diluted in kinase assay buffer to give a 12% DMSO stock, the final concentration in the assay being 3% DMSO.The kinase phosphorylation assay was initiated by the addition of the kinase and the reaction was allowed to proceed for 1 h or 2.5 h for IKKε and TBK-1 kinase respectively.).
T1 sequence (Q9UHD2 whole entry): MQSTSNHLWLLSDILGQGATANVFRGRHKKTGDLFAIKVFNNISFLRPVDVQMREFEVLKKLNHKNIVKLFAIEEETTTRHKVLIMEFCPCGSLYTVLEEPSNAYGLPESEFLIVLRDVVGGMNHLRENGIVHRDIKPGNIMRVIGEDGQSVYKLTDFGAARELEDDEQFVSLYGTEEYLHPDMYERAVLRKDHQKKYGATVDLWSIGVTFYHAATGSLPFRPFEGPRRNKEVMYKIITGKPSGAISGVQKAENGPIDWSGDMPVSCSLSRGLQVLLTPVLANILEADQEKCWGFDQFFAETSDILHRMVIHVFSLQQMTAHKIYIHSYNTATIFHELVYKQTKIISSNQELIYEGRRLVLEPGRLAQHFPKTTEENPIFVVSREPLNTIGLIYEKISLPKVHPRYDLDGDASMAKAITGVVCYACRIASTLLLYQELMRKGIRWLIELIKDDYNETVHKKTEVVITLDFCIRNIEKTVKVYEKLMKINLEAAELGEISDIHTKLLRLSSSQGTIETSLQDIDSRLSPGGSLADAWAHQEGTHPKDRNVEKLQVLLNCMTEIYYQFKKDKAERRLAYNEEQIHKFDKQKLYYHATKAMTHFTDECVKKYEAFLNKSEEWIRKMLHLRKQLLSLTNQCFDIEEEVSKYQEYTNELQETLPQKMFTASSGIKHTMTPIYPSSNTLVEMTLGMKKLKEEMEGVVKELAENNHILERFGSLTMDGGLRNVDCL

IC50 [nM] | SMILES
< 30 | N#Cc1cc(-c2ccnc(Nc3cccc(C(=O)N4CCNCC4)c3)n2)cnc1N1CC[C@H](F)C1
< 1000 | CC(=O)NC1CCN(c2ncc(-c3ccnc(Nc4ccc(CN5CCOCC5)nc4)n3)cc2C#N)C1 (stereo not given)
< 30 | N#Cc1cc(-c2ccnc(Nc3ccc(CN4C(=O)OCC4CO)nc3)n2)cnc1N1CC[C@H](F)C1 (stereo not given in full)
< 30 | N#Cc1cc(-c2ccnc(Nc3ccc(N)nc3)n2)cnc1N1CC[C@H](F)C1
< 30 | N#Cc1cc(-c2nc(Nc3ccnc(NC(=O)CN4CCOCC4)c3)ncc2F)cnc1N1CC[C@H](F)C1
